The values that follow come from US11406719B2, “Dichromic fluorescent compounds” (Washington University, priority 2008, dated 2022).

Read-outs that look alike come from different tables or passages of the source. Marks after values point to notes of the source that are not given here.

A short description of data set [1]: Steady-state absorption and fluorescence properties (spectra, quantum yield, 700/800 nm emission). The note with it: for fluorescence quantum yield: relative to ICG. The class given is physicochemical. Here is the method:
The polymethine dyes and their derivatives were dissolved in […] of DMSO as stock solutions. To prevent inner effect in the fluorescent measurements, aliquots […] were diluted with the solvent of interest until the absorbance at the excitation wavelength was 0.15. UV-Vis spectra were obtained on Beckman Coulter DU 640 UV-Vis spectrometer (Beckman Coulter, Inc., Fullerton, Calif.). Emission spectra were recorded on a Fluorolog-3 spectrofluorometer (HORIBA Jobin Yvon Inc., Edison, N.J.).
Fluorescent spectra were recorded by using 620 nm and 720 nm excitation wavelengths. Fluorescent quantum yield was measured at 720 nm with slits width of 5 nm for both excitation and emission. The fluorescence quantum yield of ICG in DMSO (Ψ=0.12) was used as a reference standard. All measurements were conducted at room temperature. Excitation scans were performed in the range of 500-720 nm with monitoring at 735 nm fluorescence intensity, and 600-815 nm with monitoring at 830 nm. Excitation scans were corrected by lamp intensity using the equation F=S/R.
The ratios of the 700 nm and 800 nm emission peaks were examined in different environments and simulated dilute conditions (e.g., binding to albumin). For this, the fluorescence behavior of compound 3 was determined in different solvents (i.e., methanol, water, and DMSO), pH levels (i.e., 2.5 and 10), and in the presence of albumin (which binds the dyes in its drug binding pocket). The spectral analysis was conducted as described above in Example 2. Spectra at pH 2.5 and 10.0 were obtained by titrating 20% DMSO/water solution with diluted aqueous HCl and NaOH.

For data set [2] the following is noted: cited from earlier work.
Data set [3] is described as follows: In vivo dichromic fluorescence imaging of mouse ears. Set-up: species or system nude mouse. The following applies: 2 nmol intravenously. From the text: To assess the retention of dichromic fluorescence in vivo, 2 nmol of symmetrical ICG (compound 2) and nonsymmetrical cypate-S (compound 3) were each injected intravenously in a nude mouse. Mouse ears were imaged with a Li-Cor Odyssey system at two excitation (680 nm and 780 nm) and emission (700 and 800 nm) channels. […] Thus, the dual fluorescence contrast mechanism is tenable in vivo.

The nature of data set [4]: Fluorescence lifetime by time correlated single photon counting (TCSPC). The format is physicochemical. The note with it: for Lifetime at 700 nm (ns): excitation 650 nm, emission 700 nm. Here is the method: Fluorescence lifetime (FLT) was measured using time correlated single photon counting (TCSPC) technique with excitation sources NanoLed® (HORIBA Jobin Yvon Inc.) at 700 nm and 773 nm and impulse repetition rate of 1 MHz at 90° to a R928P detector (Hamamatsu Photonics, Japan). The detector was set to either 750 nm (for Nanoled 700 nm) or for 820 nm (for Nanoled 773 nm) with a 20 nm bandpass. The electrical signal was amplified by TB-02 pulse amplifier (HORIBA Jobin Yvon Inc.) and the amplified signal was fed to the constant fraction discriminator CFD (Philips, Netherlands). The first detected photon represented the start signal by the time-to-amplitude converter (TAC) and the excitation pulse triggered the stop signal. The multi-channel analyzer (MCA) recorded repetitive start-stop signals from the TAC and generated a histogram of photons as a function of time-calibrated channels (6.878 ps/channel) until the peak signal reached 10,000 counts. The lifetime was recorded on a 50 ns scale. The instrument response function was obtained by using Rayleigh scatter of Ludox-40 (Sigma-Aldrich, St. Louis, Mo.) (0.03% in Milli-Q water) in a quartz cuvette at either 700 nm or 773 nm emission. DAS6 v6.1 decay analysis software (HORIBA Jobin Yvon Inc.) was used for lifetime calculations. The goodness of fit was judged by χ^2 values and Durbin-Watson parameters and visual observations of fitted line, residuals and autocorrelation function

For data set [5] the following is noted: DMSO; excitation 773 nm; emission 820 nm; from Berezin et al., 2007; cited from earlier work.
Data set [6] deals with T1, caspase-3 (Homo sapiens, UniProt P42574).
T1 sequence (P42574 29-175 limits assumed): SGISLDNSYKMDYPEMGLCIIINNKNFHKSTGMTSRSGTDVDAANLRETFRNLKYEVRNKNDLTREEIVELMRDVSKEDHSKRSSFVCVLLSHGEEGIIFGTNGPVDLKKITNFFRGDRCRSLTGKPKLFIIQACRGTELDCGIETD
T1 sequence (P42574 176-277 limits assumed): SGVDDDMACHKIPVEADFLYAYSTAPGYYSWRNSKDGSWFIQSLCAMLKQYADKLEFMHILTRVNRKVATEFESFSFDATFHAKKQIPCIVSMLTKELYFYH
The data set is described as follows: Enzyme kinetics of NIR caspase-3 probe. The class given is biochemical. Set-up: purchased CalBiochem. The note with it: non-linear fit; 37° C. Here is the method:
To examine the kinetics, a caspase-3 substrate was prepared using the standard FRET method where the tetrapeptide Asp-Glu-Val-Asp (DEVD—SEQ ID NO:4) was flanked by two cypate dyes (cypate-DEVD (SEQ ID NO:4) probe). Enzyme assays were performed with a fluorometer by using commercially available recombinant caspase-3 (CalBiochem). An aliquot of the cypate-DEVD (SEQ ID NO:4) probe (substrate concentrations ranged from 70 nM to 100 μM) was dissolved in DMSO and added to a buffer comprising 10 mM PIPES, pH 7.4, 2 mM EDTA, 0.1% CHAPS, and 5 mM DTT. Five units of the enzyme were added, and the assay was performed at 37° C. A control experiment under the same conditions but with no enzyme was conducted at the same time. The apparent Km for the cypate-DEVD (SEQ ID NO:4) probe for caspase-3 was calculated with the Cheng-Prusoff equation: […], where [S] is the concentration of substrate and Ki is the published inhibitory constant of DEVD (SEQ ID NO:4)-CHO. To generate EC50 values, initial rates were determined from the linear portion of substrate hydrolysis and were plotted against log-inhibitor concentration (DEVD (SEQ ID NO:4)-CHO). The apparent kcat values were calculated using the equation kcat=V(Km+[S])/[Et][S], where [S] is the concentration of substrate, [E] is the concentration of enzyme, and Vis the initial rate of cleavage. […]

Data set [7] addresses T1, caspase-3. The data set is described as follows: In vivo imaging of caspase-3 activity in mouse ears. Set-up: species or system nude mouse. The note with it: 2 nmol intravenously; caspase-3-injected ear relative to saline-injected ear. Here is the method:
To assess the NIR optical imaging of caspase-3 activity, 2 nmol of the pre-quenched (FRET) cypate-DEVD (SEQ ID NO:4) probe was injected intravenously in a nude mouse, followed by intradermal injection of caspase-3 solution (right pinna) or saline (left pinna). This approach provides positive and negative controls in one set of experiments. Mouse ears were imaged with Li-Cor Odyssey single-channel (805 nm) NIR imaging system (Li-Cor Biosciences, Lincoln, Neb.). Images were captured before treatment, after injection of a probe and after intradermal injection of caspase-3 in the ear.

Another data set deals with A549 cells. The data set is described as follows: Two-channel imaging of fluorescence enhancement of A549 cells. The class given is cell-based, human. The note with it: 1 μM. Here is the method:
It was hypothesized that since cypate diserine could be phosphorylated in cells, it is possible that the initial phosphorylation of one serine (as indicated by an increase in the 700 nm channel) could be followed by phosphorylation of the second serine. […] To test this notion, A549 cells were incubated with of 1 μM of compound 6.

The next data set has as its system casein kinase II. The data set is described as follows: Kinase-Glo Luminescent Kinase Assay. The class given is cell-based. The note with it: A549 cells. Here is the method: The following example was designed to further explore the use of cypate diserine (6) to monitor the activity of endogenous kinases. A549 cells (which express casein kinase II) were incubated with a standard casein kinase II peptide substrate or compound 6 (which is not specific for casein kinase II). Kinase activity was measured with the Kinase-Glo Luminescent Kinase Assay Platform (Promega Corp., Madison, Wis.) per the manufacturer's instructions. This assay measures free ATP in the reaction mixture. As phosphorylation increases, the levels of ATP decrease, and consequently, luminescence is inversely proportional to kinase activity.

Data set [8] addresses T1, caspase-3. Set-up: purchased CalBiochem. The note with it: read-out: KM of the standard; cited from earlier work.

Usually Km stands for the concentration of substrate that gives half-maximal velocity. A word on the kcat: it is the number of substrate molecules converted per active site and unit of time at saturation.

Take `CC1(C)C(/C=C/C=C/C=C/C=C2/N(CCCCS(=O)(=O)O)c3ccc4ccccc4c3C2(C)C)=[N+](CCCCS(=O)(=O)[O-])c2ccc3ccccc3c21` [Compound 2, indocyanine green, reference compound]: the “contribution of the 700 nm emission in the overall fluorescence spectra” value (from here on “contribution of the 700 nm emission”) in data set [1] came out at 24%. Also, the “fluorescence quantum yield (reference standard)” value in data set [2] (in DMSO) is 0.12. Also, the “fluorescence quantum yield (reference)” value in [2] (in methanol) was 0.090. The “visibility of blood vessels in the 700 and 800 nm channels” value in data set [3] was “showed the blood vessels only at the 800 nm channel”. Also, the “Lifetime at 700 nm (ns)” value in data set [4] (DMSO) is 1.50^d ns. The “Lifetime at 800 nm (ns)” value in data set [5] was 0.97^c ns.

With “cypate-DEVD (SEQ ID NO:4) probe: caspase-3 FRET substrate: tetrapeptide Asp-Glu-Val-Asp flanked by two cypate dyes”, in the data set with caspase-3 [6], the Km was 15 ± 3 µM and the turnover number (kcat) came to 1.02 ± 0.06 s⁻¹. Besides, in the data set with caspase-3 [7], the “magnitude and area of increase of fluorescence intensity (805 nm)” value is reported as “significantly greater in the caspase-3-injected ear”.

With `CC1(C)C(/C=C/C=C/C=C/C=C2\N(CCC(=O)NC(CO)C(=O)O)c3ccc4ccccc4c3C2(C)C)=[N+](CCC(=O)NC(CO)C(=O)O)c2ccc3ccccc3c21` (stereo not drawn) [Compound 6, di-serine cypate], the “fluorescence in the 700 nm and 800 nm emission channels” value with A549 cells (5 and 15 minutes) is reported as “early fluorescence increase in the 700 nm emission channel”. In addition, the “fluorescence in the 700 nm and 800 nm emission channels” value in the data set on A549 cells (30 and 45 minutes) was “fluorescence enhancement in both channels”. Also, in [1] (methanol), the molar absorption coefficient result is “about 220,000 M^−1 cm^−1”, the “ratio of the 700/800 nm emission peaks” value was determined as 0.36 and the fluorescence quantum yield is listed as 0.059. Further, in the data set with casein kinase II, the “luminescence (inversely proportional to kinase activity)” value is reported as “concentration-dependent decreases in luminescence”.

Ac-DEVD-pNA [Ac-DEVD (SEQ ID NO:4)-pNA]: in the data set with caspase-3 [8], the Michaelis-Menten constant (Km) is 11 µM.

Take `CC1(C)C(/C=C/C=C/C=C/C=C2\N(CCC(=O)NC(COP(=O)(O)O)C(=O)O)c3ccc4ccccc4c3C2(C)C)=[N+](CCC(=O)NC(CO)C(=O)O)c2ccc3ccccc3c21` (stereo not drawn) [Compound 7, monophosphoserine/serine cypate derivative]: in data set [1] (methanol), the “increase of the 700/800 nm ratio relative to symmetrical compound 6” value was found to be 7 fold, the molar absorption coefficient result is “about 220,000 M^−1 cm^−1”, the “ratio of the 700/800 nm emission peaks” value worked out at 2.5 and the fluorescence quantum yield came out at 0.057.

With `CC1(C)C(/C=C/C=C/C=C/C=C2/N(CCC(=O)O)c3ccc4ccccc4c3C2(C)C)=[N+](CCC(=O)[O-])c2ccc3ccccc3c21` [Compound 1, cypate, reference compound], in data set [1], the “contribution of the 700 nm emission” value worked out at 18%. The “Lifetime at 700 nm (ns)” value in data set [4] (DMSO) is “Weak signal”. Besides, the “fluorescence lifetime at 800 nm” value in data set [4] (in DMSO) turned out to be 0.86 ns. In addition, in data set [5], the “Lifetime at 800 nm (ns)” value is listed as 0.87^c ns.

As to cypate-NH2 [Compound 4], the “contribution of the 700 nm emission” value in [1] came to 82%. Further, in [4] (DMSO), the “Lifetime at 700 nm (ns)” value is 1.40 ns. For the same molecule, in data set [4] (DMSO, excitation 773 nm, emission 820 nm), the “Lifetime at 800 nm (ns)” value is recorded as 0.90 ns.
